Experimental data published in US10689377B2 (Mirati Therapeutics, Inc., priority 2017, dated 2020).
pIC50: −log10 of the molar value.

Molecular target: KRas G12C (Homo sapiens, UniProt P01116, G12C)
Experiment: Cellular inhibition of KRas G12C measured by Phospho-ERK in NCI-H358 cells
Assay type: cell-based
Conditions: pERK(Thr202/Tyr204) normalized with GAPDH, NCI-H358 cells, 3 hours; read-out: IC50
Outline: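 Ratio of phospho-ERK(Thr202/Tyr204) to GAPDH, read by near-infrared secondary antibodies on fixed, permeabilised NCI-H358 cells, expressed relative to DMSO control. Compound exposure was 3 h at 0.5% DMSO. IC50 values come from 4-parameter curve fits.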

KRas G12C, sequence (P01116 1-188 isoform P01116-2 G12C): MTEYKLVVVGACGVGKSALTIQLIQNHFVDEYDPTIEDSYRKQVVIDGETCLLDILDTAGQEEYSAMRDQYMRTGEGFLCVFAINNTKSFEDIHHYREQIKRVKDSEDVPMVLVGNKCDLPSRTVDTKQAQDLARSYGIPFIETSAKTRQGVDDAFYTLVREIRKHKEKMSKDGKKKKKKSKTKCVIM

pIC50	SMILES
6.00 to 10.00	C=CC(=O)N1CCN(c2nc(OC[C@@H]3CCCN3CCOC)nc3c2CCN(c2cccc4ccccc24)C3)CC1CC#N (stereo partly drawn) [Example 380, 2-(1-acryloyl-4-(2-(((S)-1-(2-methoxyethyl)pyrrolidin-2-yl)methoxy)-7-(naphthalen-1-yl)-5,6,7,8-tetrahydropyrido[3,4-d]pyrimidin-4-yl)piperazin-2-yl)acetonitrile]
6.00 to 10.00	C=CC(=O)N1CCN(c2nc(OC[C@@H]3C[C@@H](OC)CN3C)nc3c2CCN(c2cccc4ccccc24)C3)CC1CC#N (stereo partly drawn) [Example 381, 2-(1-acryloyl-4-(2-(((2S,4R)-4-methoxy-1-methylpyrrolidin-2-yl)methoxy)-7-(naphthalen-1-yl)-5,6,7,8-tetrahydropyrido[3,4-d]pyrimidin-4-yl)piperazin-2-yl)acetonitrile]
6.00 to 10.00	C=CC(=O)N1CCN(c2nc(OC[C@@H]3CCCN3C)nc3c2CCN(c2cncc(F)c2C(F)(F)F)C3)C[C@@H]1CC#N [Example 383, 2-((S)-1-acryloyl-4-(7-(5-fluoro-4-(trifluoromethyl)pyridin-3-yl)-2-(((S)-1-methylpyrrolidin-2-yl)methoxy)-5,6,7,8-tetrahydropyrido[3,4-d]pyrimidin-4-yl)piperazin-2-yl)acetonitrile]
6.00 to 10.00	C=CC(=O)N1CCN(c2nc(OC[C@@H]3C[C@@H](F)CN3C)nc3c2CCN(c2cncc(F)c2C(F)(F)F)C3)C[C@@H]1CC#N [Example 384, 2-((S)-1-acryloyl-4-(2-(((2S,4R)-4-fluoro-1-methylpyrrolidin-2-yl)methoxy)-7-(5-fluoro-4-(trifluoromethyl)pyridin-3-yl)-5,6,7,8-tetrahydropyrido[3,4-d]pyrimidin-4-yl)piperazin-2-yl)acetonitrile]
6.00 to 10.00	C=CC(=O)N1CCN(c2nc(OC[C@@H]3CCCN3C)nc3c2CCN(c2cncc(Cl)c2C(F)(F)F)C3)C[C@@H]1CC#N [Example 385, 2-((S)-1-acryloyl-4-(7-(5-chloro-4-(trifluoromethyl)pyridin-3-yl)-2-(((S)-1-methylpyrrolidin-2-yl)methoxy)-5,6,7,8-tetrahydropyrido[3,4-d]pyrimidin-4-yl)piperazin-2-yl)acetonitrile]
6.00 to 10.00	C=CC(=O)N1CCN(c2nc(OC[C@@H]3C[C@@H](F)CN3C(C)C)nc3c2CCN(c2cncc(F)c2C(F)(F)F)C3)C[C@@H]1CC#N [Example 386, 2-((S)-1-acryloyl-4-(2-(((2S,4R)-4-fluoro-1-isopropylpyrrolidin-2-yl)methoxy)-7-(5-fluoro-4-(trifluoromethyl)pyridin-3-yl)-5,6,7,8-tetrahydropyrido[3,4-d]pyrimidin-4-yl)piperazin-2-yl)acetonitrile]
6.00 to 10.00	C=CC(=O)N1CCN(c2nc(OC[C@@H]3CCCN3C)nc3c2CCN(c2cncc(Cl)c2C)C3)C[C@@H]1CC#N [Example 387, 2-((S)-1-acryloyl-4-(7-(5-chloro-4-methylpyridin-3-yl)-2-(((S)-1-methylpyrrolidin-2-yl)methoxy)-5,6,7,8-tetrahydropyrido[3,4-d]pyrimidin-4-yl)piperazin-2-yl)acetonitrile]
6.00 to 10.00	C=CC(=O)N1CCN(c2nc(OC[C@@H]3CCCN3C)nc3c2CCN(c2cccc(F)c2C)C3)C[C@@H]1CC#N [Example 388, 2-((S)-1-acryloyl-4-(7-(3-fluoro-2-methylphenyl)-2-(((S)-1-methylpyrrolidin-2-yl)methoxy)-5,6,7,8-tetrahydropyrido[3,4-d]pyrimidin-4-yl)piperazin-2-yl)acetonitrile]
< 6.00	CC#CC(=O)N1CCN(c2nc(OC[C@@H]3CCCN3C)nc3c2CCN(c2cccc(C)c2C)C3)C[C@@H]1CC#N [Example 389, 2-((S)-1-(but-2-ynoyl)-4-(7-(2,3-dimethylphenyl)-2-(((S)-1-methylpyrrolidin-2-yl)methoxy)-5,6,7,8-tetrahydropyrido[3,4-d]pyrimidin-4-yl)piperazin-2-yl)acetonitrile]
6.00 to 10.00	C=CC(=O)N1CCN(c2nc(OC[C@@H]3[C@@H](O)CCN3C)nc3c2CCN(c2cccc4ccccc24)C3)C[C@@H]1CC#N [Example 390, 2-((S)-1-acryloyl-4-(2-(((2R,3S)-3-hydroxy-1-methylpyrrolidin-2-yl)methoxy)-7-(naphthalen-1-yl)-5,6,7,8-tetrahydropyrido[3,4-d]pyrimidin-4-yl)piperazin-2-yl)acetonitrile]
6.00 to 10.00	CC#CC(=O)N1CCN(c2nc(OC[C@@H]3CCCN3C)nc3c2CCN(c2cccc4cccc(Cl)c24)C3)C[C@@H]1CC#N [Example 391, 2-((S)-1-(but-2-ynoyl)-4-(7-(8-chloronaphthalen-1-yl)-2-(((S)-1-methylpyrrolidin-2-yl)methoxy)-5,6,7,8-tetrahydropyrido[3,4-d]pyrimidin-4-yl)piperazin-2-yl)acetonitrile]
6.00 to 10.00	C=CC(=O)N1CCN(c2nc(OC[C@@H]3CCCN3C)nc3c2CCN(c2cccc(C)c2C)C3)C[C@@H]1CC#N [Example 394, 2-((S)-1-acryloyl-4-(7-(2,3-dimethylphenyl)-2-(((S)-1-methylpyrrolidin-2-yl)methoxy)-5,6,7,8-tetrahydropyrido[3,4-d]pyrimidin-4-yl)piperazin-2-yl)acetonitrile]
6.00 to 10.00	C=CC(=O)N1CCN(c2nc(OC[C@@H]3CCCN3CC3CC3)nc3c2CCN(c2cccc4ccccc24)C3)CC1CC#N (stereo partly drawn) [Example 396, 2-(1-acryloyl-4-(2-(((S)-1-(cyclopropylmethyl)pyrrolidin-2-yl)methoxy)-7-(naphthalen-1-yl)-5,6,7,8-tetrahydropyrido[3,4-d]pyrimidin-4-yl)piperazin-2-yl)acetonitrile]
6.00 to 10.00	C=CC(=O)N1CCN(c2nc(OCC(C)(C)N(C)C)nc3c2CCN(c2cccc4ccccc24)C3)CC1CC#N (stereo not drawn) [Example 397, 2-(1-acryloyl-4-(2-(2-(dimethylamino)-2-methylpropoxy)-7-(naphthalen-1-yl)-5,6,7,8-tetrahydropyrido[3,4-d]pyrimidin-4-yl)piperazin-2-yl)acetonitrile]
6.00 to 10.00	C=CC(=O)N1CCN(c2nc(OC[C@@H]3CCCN3CC(=O)N(C)C)nc3c2CCN(c2cccc4ccccc24)C3)CC1CC#N (stereo partly drawn) [Example 398, 2-((2S)-2-(((4-(4-acryloyl-3-(cyanomethyl)piperazin-1-yl)-7-(naphthalen-1-yl)-5,6,7,8-tetrahydropyrido[3,4-d]pyrimidin-2-yl)oxy)methyl)pyrrolidin-1-yl)-N,N-dimethylacetamide]
6.00 to 10.00	C=CC(=O)N1CCN(c2nc(OC[C@@H]3CCCN3CC)nc3c2CCN(c2cccc4ccccc24)C3)C[C@@H]1CC#N [Example 400, 2-((S)-1-acryloyl-4-(2-(((S)-1-ethylpyrrolidin-2-yl)methoxy)-7-(naphthalen-1-yl)-5,6,7,8-tetrahydropyrido[3,4-d]pyrimidin-4-yl)piperazin-2-yl)acetonitrile]
6.00 to 10.00	CCN1CCC[C@H]1COc1nc2c(c(N3CCN(C(=O)/C=C/CN(C)C)[C@@H](CC#N)C3)n1)CCN(c1cccc3ccccc13)C2 [Example 401, 2-((S)-1-((E)-4-(dimethylamino)but-2-enoyl)-4-(2-(((S)-1-ethylpyrrolidin-2-yl)methoxy)-7-(naphthalen-1-yl)-5,6,7,8-tetrahydropyrido[3,4-d]pyrimidin-4-yl)piperazin-2-yl)acetonitrile]
6.00 to 10.00	C=CC(=O)N1CCN(c2nc(OC[C@@H]3CCCN3CC(=O)N(C)C)nc3c2CCN(c2cccc4ccccc24)C3)C[C@@H]1CC#N [Example 402, 2-((S)-2-(((4-((S)-4-acryloyl-3-(cyanomethyl)piperazin-1-yl)-7-(naphthalen-1-yl)-5,6,7,8-tetrahydropyrido[3,4-d]pyrimidin-2-yl)oxy)methyl)pyrrolidin-1-yl)-N,N-dimethylacetamide]
6.00 to 10.00	C=CC(=O)N1CCN(c2nc(N3CC[C@H](N(C)C)C3)nc3c2CCN(c2cccc4ccccc24)C3)C[C@@H]1CC#N [Example 403]
6.00 to 10.00	Cc1cccc(N2CCc3c(nc(OC[C@@H]4CCCN4C)nc3N3CCN(C(=O)/C=C/CN(C)C)[C@@H](CC#N)C3)C2)c1C [Example 404, 2-((S)-1-((E)-4-(dimethylamino)but-2-enoyl)-4-(7-(2,3-dimethylphenyl)-2-(((S)-1-methylpyrrolidin-2-yl)methoxy)-5,6,7,8-tetrahydropyrido[3,4-d]pyrimidin-4-yl)piperazin-2-yl)acetonitrile]
6.00 to 10.00	C=CC(=O)N1CCN(c2nc(N3CCCC(N(C)C)C3)nc3c2CCN(c2cccc4ccccc24)C3)C[C@@H]1CC#N (stereo partly drawn) [Example 405, 2-((2S)-1-acryloyl-4-(2-(3-(dimethylamino)piperidin-1-yl)-7-(naphthalen-1-yl)-5,6,7,8-tetrahydropyrido[3,4-d]pyrimidin-4-yl)piperazin-2-yl)acetonitrile]
6.00 to 10.00	C=CC(=O)N1CCN(c2nc(OC[C@@H]3CCCN3C)nc3c2CCN(c2cccc(F)c2Cl)C3)C[C@@H]1CC#N [Example 406, 2-((S)-1-acryloyl-4-(7-(2-chloro-3-fluorophenyl)-2-(((S)-1-methylpyrrolidin-2-yl)methoxy)-5,6,7,8-tetrahydropyrido[3,4-d]pyrimidin-4-yl)piperazin-2-yl)acetonitrile]
< 6.00	C=CC(=O)N1CCN(c2nc(OC[C@@H]3CCCN3C)nc3c2CCN(c2cccc(F)c2F)C3)C[C@@H]1CC#N [Example 407, 2-((S)-1-acryloyl-4-(7-(2,3-difluorophenyl)-2-(((S)-1-methylpyrrolidin-2-yl)methoxy)-5,6,7,8-tetrahydropyrido[3,4-d]pyrimidin-4-yl)piperazin-2-yl)acetonitrile]

SMILES	pIC50
C=CC(=O)N1CCN(c2nc(OC[C@]3(C)CCCN3C)nc3c2CCN(c2cccc4ccccc24)C3)CC1CC#N (stereo partly drawn) [Example 395, 2-(1-acryloyl-4-(2-(((S)-1,2-dimethylpyrrolidin-2-yl)methoxy)-7-(naphthalen-1-yl)-5,6,7,8-tetrahydropyrido[3,4-d]pyrimidin-4-yl)piperazin-2-yl)acetonitrile]	6.00 to 10.00
